In patent US20040038856A1, “Treatment of fibroproliferative disorders using TGF-beta inhibitors” (priority 2002, published 2004):

Test system: bleomycin rat model of pulmonary fibrosis
Test: Bleomycin rat model of pulmonary fibrosis, day 14, dexamethasone and/or test compound
Format: in vivo
Conditions: Dex 2.0 mg/kg every other day, test compound 40 mg/kg twice a day
Procedure: Rats were intubated with saline or 1 unit of bleomycin. After twenty four hours, rats were weighed and dosed with saline or 2.0 mg/kg of dexamethasone every other day and 1% methyl cellulose (MC) or 40 mg/kg of a test compound twice a day. On day 14, 1-3 hours after dosing, rat were sacrificed and lungs were inflated and collected for analysis.
The primary end points of the analysis were the total hydroxyproline concentration per lung and lung capacity. The secondary end point was the body weight.
The statistical analysis was done using one-way ANOVA with Bonferroni's Multiple Comparison Test.

## C[C@@H]1C[C@H]2[C@@H]3CCC4=CC(=O)C=C[C@]4(C)[C@@]3(F)[C@@H](O)C[C@]2(C)[C@@]1(O)C(=O)CO [dexamethasone]
  bleomycin-induced body weight loss: no effect
